Target: T1, human DP2 receptor (Homo sapiens, UniProt Q9Y5Y4)
T1 construct: expressed in transfected cells; host or cells: CHO-K1 FLP-In (Invitrogen, catalog no. R758-07), stably transfected
T1 sequence (Q9Y5Y4 1-395): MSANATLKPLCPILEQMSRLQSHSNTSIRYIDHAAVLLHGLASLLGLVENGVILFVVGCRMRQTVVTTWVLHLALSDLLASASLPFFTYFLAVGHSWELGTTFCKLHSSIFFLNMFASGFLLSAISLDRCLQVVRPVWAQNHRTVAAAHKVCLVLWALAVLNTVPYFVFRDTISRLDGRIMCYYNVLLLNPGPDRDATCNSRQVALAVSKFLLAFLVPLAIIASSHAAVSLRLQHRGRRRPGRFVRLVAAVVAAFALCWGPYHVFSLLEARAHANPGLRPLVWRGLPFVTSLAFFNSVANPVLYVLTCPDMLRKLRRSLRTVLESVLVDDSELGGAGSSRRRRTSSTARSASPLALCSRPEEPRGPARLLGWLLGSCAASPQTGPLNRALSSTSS
Test: Prostaglandin D2 binding inhibition assay (scintillation proximity assay, 3H PGD2, membranes of transfected CHO cells)
Conditions: SPA, 5.5 nM 3H PGD2, CHO-K1 FLP-In human DP2 membranes; upper limit determinable 30 μM; read-out: IC50 ranges for inhibition of PGD2 binding to human DP2
Protocol: The ability of compounds to inhibit binding of prostaglandin D2 (PGD2) to the human DP2 receptor was measured using a scintillation proximity assay (SPA). Chinese Hamster Ovary FLP-In cell lines (CHO-K1 FLP-In, Invitrogen, catalog no. R758-07) were stably transfected with the human DP2 gene (Genebank: AY507142). Cell lines were grown in suspension in EX-CELL 302 CHO Serum-free medium (Sigma, catalog no. 14324C) supplemented with 1% Fetal Bovine Serum (Invitrogen no. 10099-141), 2 mM L-glutamine (Invitrogen, catalog no. 25030-081) and 0.5 mg/ml Hygromycin B (Invitrogen, catalog no. 10687-010). Cells were collected by centrifugation in a Beckman Coulter Allegra X-12R centrifuge at 150×g for 5 minutes at room temperature.
Membranes from transfected cells were isolated for binding assays. Cell pellets containing approximately 2×10^9 cells were resuspended in 35 ml of cold membrane homogenization buffer (10 mM Tris (Sigma, catalog no. T2663), 1 mM EDTA (Fluka BioChemika no. 03690), and 70 μl of protease inhibitor cocktail (Sigma, catalog no. P8340)). Cells were homogenized with 30 strokes of a dounce homogenizer (Kontes, catalog no. 885303-0040), and the solution centrifuged at 200×g for 10 minutes. The supernatant was transferred to a 50 ml Oakridge tube (Beckman, catalog no. 357000) and centrifuged in a Beckman Coulter Avanti J-26×PI centrifuge with a JA30.50 rotor at 81,000×g for 1 hour at 15° C. The pellet was resuspended in membrane storage buffer (50 mM Tris (Sigma, catalog no. T2663), 2.5 mM EDTA (Fluka BioChemika no. 03690), 5 mM magnesium chloride (Sigma, catalog no. M1028), 100 mg/ml sucrose (Sigma, catalog no. 50389) and a 1:500 dilution of protease inhibitor cocktail (Sigma, catalog no. P8340)) and the total protein was quantitated using a BCA protein measurement kit (Pierce, catalog no. 23225). Aliquots were frozen at −80° C. until used. Compounds were tested for their ability to inhibit PGD2 binding to the purified membranes. 5 μg of the purified membranes, 0.25 mg of wheat germ agglutinin PVT SPA beads (GE Healthcare, catalog no. RPNQ0060) and 5.5 nM of ^3H PGD2 (PerkinElmer, catalog no. NET-616) were mixed in assay buffer ((50 mM Tris (Sigma, catalog no. T2663), 10 mM magnesium chloride (Sigma, catalog no. M1028), 100 mM sodium chloride (Sigma, catalog no. S6546) and 0.1% bovine serum albumin (Sigma, catalog no. A2153)). Using a Multidrop bulk dispenser, 75 μl of the assay mixture was dispensed in Optiplates (PerkinElmer, catalog no. 6007299) containing the compounds to be tested. After a 60 minute incubation period at room temperature, the plates were read on a PerkinElmer Topcount NXT HTS, and individual wells were quantitated as counts per minute (CPM). Data were expressed as a percent of the difference between the maximum and minimum responses. IC50 values (the concentration of compound producing 50% of the maximal response) were determined using a two-parameter non-linear regression algorithm analyzed using CambridgeSoft Bioassay software. Table 2 gives the range of IC50 values for claimed compounds in the binding assay.

SMILES | IC50
Cc1ccc(S(=O)(=O)N2CCC[C@@H](n3c(=O)n(CC(=O)O)c4cccnc43)C2)c(F)c1 [Compound 116, (R)-2-(3-(1-(2-fluoro-4-methylphenylsulfonyl)piperidin-3-yl)-2-oxo-2,3-dihydro-1H-imidazo[4,5-b]pyridin-1-yl)acetic acid] | < 1 µM
CC(C)(C)c1ccc(S(=O)(=O)N2CCC(n3c(=O)n(CC(=O)O)c4cccnc43)CC2)cc1 [Compound 65, 2-(3-(1-(4-tert-butylphenylsulfonyl)piperidin-4-yl)-2-oxo-2,3-dihydro-1H-imidazo[4,5-b]pyridin-1-yl)acetic acid] | 1 to 10 µM
O=C(O)Cn1c(=O)n(C2CCN(S(=O)(=O)c3cccc4ccccc34)CC2)c2ncccc21 [Compound 32, 2-(3-(1-(naphthalen-1-ylsulfonyl)piperidin-4-yl)-2-oxo-2,3-dihydro-1H-imidazo[4,5-b]pyridin-1-yl)acetic acid] | 1 to 10 µM
COc1ccc(S(=O)(=O)N2CCC(n3c(=O)n(CC(=O)O)c4cccnc43)CC2)cc1 [Compound 89, 2-(3-(1-(4-methoxyphenylsulfonyl)piperidin-4-yl)-2-oxo-2,3-dihydro-1H-imidazo[4,5-b]pyridin-1-yl)acetic acid] | 1 to 10 µM
O=C(O)Cn1c(=O)n(C2CCC(NS(=O)(=O)c3ccc(F)cc3Cl)CC2)c2ncccc21 (centres unmarked) [Compound 105, 2-(3-(4-(2-chloro-4-fluorophenylsulfonamido)cyclohexyl)-2-oxo-2,3-dihydro-1H-imidazo[4,5-b]pyridin-1-yl)acetic acid] | 1 to 10 µM
Cc1cc(F)ccc1S(=O)(=O)N1CCC(n2c(=O)n(CC(=O)O)c3cccnc32)CC1 [Compound 36, 2-(3-(1-(4-fluoro-2-methylphenyl-sulfonyl)piperidin-4-yl)-2-oxo-2,3-dihydro-1H-imidazo[4,5-b]pyridin-1-yl)acetic acid] | < 1 µM
Cc1ccnc2c1n(CC(=O)O)c(=O)n2C1CCN(S(=O)(=O)c2ccccc2Cl)CC1 [Compound 121, 2-(3-(1-(2-chlorophenylsulfonyl)piperidin-4-yl)-7-methyl-2-oxo-2,3-dihydro-1H-imidazo[4,5-b]pyridin-1-yl)acetic acid] | > 30 µM
N#Cc1cccc(S(=O)(=O)N2CCC(n3c(=O)n(CC(=O)O)c4cccnc43)CC2)c1 [Compound 69, 2-(3-(1-(3-cyanophenylsuIfonyl)piperidin-4-yl)-2-oxo-2,3-dihydro-1H-imidazo[4,5-b]pyridin-1-yl)acetic acid] | 1 to 10 µM
CCCCOc1ccc(S(=O)(=O)N2CCC(n3c(=O)n(CC(=O)O)c4cccnc43)CC2)cc1 [Compound 98, 2-(3-(1-(4-butoxyphenylsulfonyl)piperidin-4-yl)-2-oxo-2,3-dihydro-1H-imidazo[4,5-b]pyridin-1-yl)acetic acid] | < 1 µM
CS(=O)(=O)c1ccccc1S(=O)(=O)N1CCC[C@H](n2c(=O)n(CC(=O)O)c3cccnc32)C1 [Compound 108, (S)-2-(3-(1-(2-(methylsulfonyl)phenylsulfonyl)piperidin-3-yl)-2-oxo-2,3-dihydro-1H-imidazo[4,5-b]pyridin-1-yl)acetic acid] | 1 to 10 µM
CCCS(=O)(=O)N1CCC(n2c(=O)n(CC(=O)O)c3cccnc32)CC1 [Compound 44, 2-(2-oxo-3-(1-(propylsulfonyl)piperidin-4-yl)-2,3-dihydro-1H-imidazo[4,5-b]pyridin-1-yl)acetic acid] | 1 to 10 µM
O=C(O)Cn1c(=O)n(C2CCN(S(=O)(=O)c3ccc(Cl)cc3F)CC2)c2ncc(F)cc21 [Compound 71, 2-(3-(1-(4-chloro-2-fluorophenyl-sulfonyl)piperidin-4-yl)-6-fluoro-2-oxo-2,3-dihydro-1H-imidazo[4,5-b]pyridin-1-yl)acetic acid] | 1 to 10 µM
Cc1c(F)cccc1S(=O)(=O)N1CCC(n2c(=O)n(CC(=O)O)c3cccnc32)CC1 [Compound 96, 2-(3-(1-(3-fluoro-2-methylphenylsulfonyl)piperidin-4-yl)-2-oxo-2,3-dihydro-1H-imidazo[4,5-b]pyridin-1-yl)acetic acid] | < 1 µM
O=C(O)Cn1c(=O)n(C2CCN(S(=O)(=O)c3ccccc3Cl)CC2)c2cccnc21 [Compound 133, 2-(1-(1-(2-chlorophenylsulfonyl)piperidin-4-yl)-2-oxo-1H-imidazo[4,5-b]pyridin-3(2H)-yl)acetic acid] | > 30 µM
CC(C)Oc1ccc(S(=O)(=O)N2CCC(n3c(=O)n(CC(=O)O)c4cccnc43)CC2)cc1 [Compound 75, 2-(3-(1-(4-isopropoxyphenylsulfonyl)piperidin-4-yl)-2-oxo-2,3-dihydro-1H-imidazo[4,5-b]pyridin-1-yl)acetic acid] | > 30 µM
COc1ccc(S(=O)(=O)N2CCC(n3c(=O)n(CC(=O)O)c4cccnc43)CC2)cc1OC [Compound 47, 2-(3-(1-(3,4-dimethoxyphenyl-sulfonyl)piperidin-4-yl)-2-oxo-2,3-dihydro-1H-imidazo[4,5-b]pyridin-1-yl)acetic acid] | 10 to 30 µM
O=C(O)Cn1c(=O)n(C2CCN(S(=O)(=O)c3ccccc3Cl)CC2)c2ncccc21 [Compound 58, 2-(3-(1-(2-chlorophenylsulfonyl)piperidin-4-yl)-2-oxo-2,3-dihydro-1H-imidazo[4,5-b]pyridin-1-yl)acetic acid] | < 1 µM
O=C(O)Cn1c(=O)n(C2CCN(S(=O)(=O)c3ccc(Cl)s3)CC2)c2ncccc21 [Compound 80, 2-(3-(1-(5-chlorothiophen-2-yl-sulfonyl)piperidin-4-yl)-2-oxo-2,3-dihydro-1H-imidazo[4,5-b]pyridin-1-yl)acetic acid] | 1 to 10 µM
Cc1noc(C)c1S(=O)(=O)N1CCC(n2c(=O)n(CC(=O)O)c3cccnc32)CC1 [Compound 54, 2-(3-(1-(3,5-dimethylisoxazol-4-ylsulfonyl)piperidin-4-yl)-2-oxo-2,3-dihydro-1H-imidazo[4,5-b]pyridin-1-yl)acetic acid] | > 30 µM
O=C(O)Cn1c(=O)n([C@@H]2CCN(S(=O)(=O)c3ccc(F)cc3Cl)C2)c2ncccc21 [Compound 101, (R)-2-(3-(1-(2-chloro-4-fluorophenylsulfonyl)pyrrolidin-3-yl)-2-oxo-2,3-dihydro-1H-imidazo[4,5-b]pyridin-1-yl)acetic acid] | < 1 µM
O=C(O)Cn1c(=O)n(C2CCN(S(=O)(=O)c3ccc(Cl)cc3Cl)CC2)c2ccncc21 [Compound 142, 2-(1-(1-(2,4-dichlorophenylsulfonyl)piperidin-4-yl)-2-oxo-1H-imidazo[4,5-c]pyridin-3(2H)-yl)acetic acid] | > 30 µM
O=C(O)Cn1c(=O)n([C@@H]2CCCN(S(=O)(=O)c3ccc(F)cc3Cl)C2)c2ncccc21 [Compound 114, (R)-2-(3-(1-(2-chloro-4-fluorophenylsulfonyl)piperidin-3-yl)-2-oxo-2,3-dihydro-1H-imidazo[4,5-b]pyridin-1-yl)acetic acid] | < 1 µM
Cc1ccnc2c1n(CC(=O)O)c(=O)n2C1CCN(S(=O)(=O)c2ccc(F)cc2Cl)CC1 [Compound 120, 2-(3-(1-(2-chloro-4-fluorophenylsulfonyl)piperidin-4-yl)-7-methyl-2-oxo-2,3-dihydro-1H-imidazo[4,5-b]pyridin-1-yl)acetic acid] | > 30 µM

Source: patent publication US20110190336A1, “AZABENZIMIDAZOLONES” (CARA THERAPEUTICS, INC., priority 2008, published 2011)
